Assay results as given in patent US7547708B2, “N-sulfamoyl-N′-benzopyranpiperidine compounds and uses thereof” (Solvay Pharmaceuticals, Inc., priority 2005, dated 2009).

How the values were obtained:
[1] = target: T1, human carbonic anhydrase isoenzyme II (hCA II) (Homo sapiens, UniProt P00918); test: In vitro inhibition of human carbonic anhydrase isoenzyme II (dansylamide fluorescence); type: binding; conditions: hCA II from erythrocytes 10^-7 M, dansylamide 2.25x10^-6, 60 min at 37° C., single measurements; read-out: hCA II inhibiting effect in vitro, IC50
T1 construct: human carbonic anhydrase isoenzyme II from erythrocytes (Sigma-Aldrich); purchased Sigma-Aldrich; host or cells: human erythrocytes (natural source)
Description: 1. In vitro Inhibition of Human Carbonic Anhydrase Isoenzyme II (hCA II)
The test compounds of general Formula I in 96 well microplates were diluted with aqua bidest by using an automatic pipettor (CyBiWell®). From the different dilution plates, aliquots of 20 μl were transferred to the 96 well black assay plates with a pipetting station (Tecan Genesis®). In a second step, 148 μl of potassium phosphate buffer (20 mM, pH 7.4) was added, and as a third step, 20 μl of enzyme solution (1 μM human carbonic anhydrase isoenzyme II from erythrocytes (Sigma-Aldrich), dissolved in potassium phosphate buffer) incubated for 60 min at room temperature and the fluorescence signal (Tecan Ultra® fluorescence reader; excitation wavelength: 280 nm; emission wavelength: 465 nm) read at the end of the preincubation period (FLU-1). After the preincubation time, 20 μl of aqueous dansylamide solution (1 mM dansylamide (Sigma-Aldrich), dissolved in hydrochloric acid) were added and the fluorescence signal read every 10 min for a period of 60 min at 37° C. For calculation, the fluorescence data of the time point 60 min (FLU-2) were used. The total volume of assay mixture amounted to 208 μl. The final concentration of carbonic anhydrase II was 10^−7 M/L, of dansylamide 2.25×10^−6 and of compounds from 10^−8 M/L up to 10^−5 M/L. Final concentration of DMSO as compound solvent was 0.1 mM. Each microplate also contained blanks without compound and enzyme, controls without compound and ethoxzolamide (final concentration 5×10^−8 M/L). All data reflect single measurements. Data were expressed as % inhibition after calculation by the formula: % inhibition=100((1−(FLU-2cpd−FLU-2blank−FLU-1cpd+FLU-1blank)/(FLU-2control−FLU-2blank−FLU-1control−FLU-1blank))
The % inhibition data for each compound and the respective final concentrations were used for IC50 calculations by using the Prism 4 software. Concentration action figures were calculated by applying the Prism algorithm for nonlinear regression (curve-fit): sigmoidal dose response with variable slope and the constraints: top: 100 and bottom 0.

[2] = system: C57BI/6 mice; test: Acute in vivo food intake test in mice; conditions: 24 h food intake, C57BI/6 mice on high caloric diet, 100 mg/kg/day by oral gavage in two half doses
Description: 2. Acute in vivo Food Intake Test in Mice
The studies were carried out in male or female C57BI/6 mice (n=8-12 per group). The mice were kept on an inverted 12/12 h light/dark cycle (lights on 22:00). They were allowed food (high caloric diet) and water ad libitum. Food intake and water consumption was measured daily. The test compound of general Formula I was suspended in 1% methylcellulose in water and 2% (v/v) of Poloxamer 188 (Lutrol F68®) and administered by oral gavage at a dose of 100 mg/kg/day. One half of the dose was administered at 7.00-9.00 h; the remaining half of the dose was administered between 15.00-15.30 h.
In the test model described above, the test substances caused a decrease of the animals' 24 h food intake to the percentages of food intake when compared to control as given in the following Table 2.

Compound: COc1ccc2c(c1)C(=O)CC1(CCN(S(N)(=O)=O)CC1)O2 [Example 3]
- melting point: 172 to 177 °C
- IC50 [1]: 7.7 µM

Compound: NS(=O)(=O)N1CCC2(CC1)CC(=O)c1ccccc1O2 [Example 1]
- melting point: 172 to 174 °C
- food intake [% of control] [2]: 83 % of control
- IC50 [1]: 6.6 µM

Compound: NS(=O)(=O)N1CCC2(CC1)CC(=O)c1cc(Cl)ccc1O2 [Example 4]
- IC50 [1]: 6.4 µM
